This is an account of results in patent US10357481B2 (MERCK SHARP & DOHME CORP., priority 2015, dated 2019).

The target of the test is T1, human PDE2A1 (Homo sapiens, UniProt O00408).
T1 construct: GST; purchased BPS Bioscience (San Diego, Calif.) 60020; host or cells: insect cells
The test is described as follows: IMAP FP PDE selectivity panel, human PDE2A1. Format: biochemical. Conditions: Lab B; read-out: Human PDE2 Ki (nM) Lab B. The protocol: Selectivity for PDE2, as compared to other PDE families, was assessed using the IMAP® technology. Human PDE10A2 enzyme was prepared from cytosolic fractions of transiently transfected HEK cells.
Assays for PDE 1 through 11 were performed in parallel at room temperature in 384-well microtiter plates with an incubation volume of 20.2 μL. Solutions of test compounds were prepared in DMSO and serially diluted with DMSO to yield 30 μL of each of ten solutions differing by 3-fold in concentration, at 32 serial dilutions per plate. […] A Labcyte POD 810 (Labcyte, Sunnyvale, Calif.) was used to dispense 200 nL from each well of the titration plate to make eleven copies of the assay plate for each titration, one copy for each PDE enzyme. A solution of each enzyme (dilution from aliquots, sufficient to produce 20% substrate conversion) and a separate solution of FAM-labeled cAMP or FAM-labeled cGMP from Molecular Devices (Sunnyvale, Calif., product # R7506 or cGMP#R7508), at a final concentration of 50 nM were made in the assay buffer (10 mM Tris HCl, pH 7.2, 10 mM MgCl2, 0.05% NaN3 0.01% Tween-20, and 1 mM DTT). Note that the substrate for PDE2 is 50 nM FAM cAMP containing 1000 nM of cGMP. The enzyme and the substrate were then added to the assay plates in two consecutive additions of 10 μL and then shaken to mix. The reaction was allowed to proceed at room temperature for 60 minutes. A binding solution was then made from the kit components, comprised of 80% Solution A, 20% Solution B and binding reagent at a volume of 1/600 the total binding solution. The enzymatic reaction was stopped by addition of 60 μL of the binding solution to each well of the assay plate. The plates were sealed and shaken for 10 seconds. The plates were incubated at room temperature for one hour, then the parallel and perpendicular fluorescence was measured using a Tecan Genios Pro plate reader (Tecan, Switzerland). […] The intrinsic PDE2 inhibitory activity of a compound which may be used in accordance with the present invention may be determined by these assays.

One may read the Ki as a dissociation constant, usually derived from enzyme kinetics or from competition with a known ligand.

T1 sequence (O00408 1-920 isoform O00408-2): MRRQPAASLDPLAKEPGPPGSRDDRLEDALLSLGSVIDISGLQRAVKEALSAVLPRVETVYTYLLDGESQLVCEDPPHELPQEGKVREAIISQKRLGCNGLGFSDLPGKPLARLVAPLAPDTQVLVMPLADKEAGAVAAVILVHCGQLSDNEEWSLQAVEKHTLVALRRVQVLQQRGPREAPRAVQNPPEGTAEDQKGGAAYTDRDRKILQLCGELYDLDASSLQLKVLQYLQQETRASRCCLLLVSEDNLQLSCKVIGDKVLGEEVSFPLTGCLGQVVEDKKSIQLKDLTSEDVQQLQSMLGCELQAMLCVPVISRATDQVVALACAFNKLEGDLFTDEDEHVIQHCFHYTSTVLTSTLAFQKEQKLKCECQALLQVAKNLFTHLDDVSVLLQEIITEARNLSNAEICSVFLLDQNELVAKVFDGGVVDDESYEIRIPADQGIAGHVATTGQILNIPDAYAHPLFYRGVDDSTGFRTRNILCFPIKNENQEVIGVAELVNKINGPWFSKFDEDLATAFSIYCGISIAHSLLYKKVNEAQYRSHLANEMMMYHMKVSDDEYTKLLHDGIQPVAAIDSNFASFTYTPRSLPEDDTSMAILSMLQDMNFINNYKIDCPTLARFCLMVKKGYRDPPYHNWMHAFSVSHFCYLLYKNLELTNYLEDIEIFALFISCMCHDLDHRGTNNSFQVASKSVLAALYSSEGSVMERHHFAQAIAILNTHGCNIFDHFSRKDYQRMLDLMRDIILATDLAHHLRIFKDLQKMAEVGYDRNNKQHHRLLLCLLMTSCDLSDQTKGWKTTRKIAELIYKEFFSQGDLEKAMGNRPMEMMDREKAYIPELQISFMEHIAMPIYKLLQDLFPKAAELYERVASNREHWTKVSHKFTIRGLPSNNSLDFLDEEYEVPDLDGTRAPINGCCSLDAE

Regarding `Cc1cc(N[C@@H](c2ccc(C(F)(F)F)cc2)[C@H](C)O)n2ncnc2n1` [Example 90, (1S,2S)-1-[(5-Methyl[1,2,4]triazolo[1,5-a]pyrimidin-7-yl)amino]-1-[4-(trifluoromethyl)phenyl]propan-2-ol], the Ki is approximately 1790 nM.
In the case of `Cc1cc(NC2(c3ccc(C(F)(F)F)cc3)CCCC2)n2ncnc2n1` [Example 67, 5-Methyl-N-{1-[4-(trifluoromethyl)phenyl]cyclopentyl}[1,2,4]triazolo [1,5-a]pyrimidin-7-amine], the Ki came to 367 nM.
As to `Cc1cc(NC(c2ccc(OC(F)(F)F)c(F)c2)C2COC2)n2ncnc2n1` (single isomer, unassigned) [Example 230, (S)- or (R)-N-((3-Fluoro-4-(trifluoromethoxy)phenyl)(oxetan-3-yl)methyl)-5-methyl-[1,2,4]triazolo [1,5-a]pyrimidin-7-amine], the Ki was 167 nM.
Turning to `Cc1cc(N[C@@H](c2ccc(C3CC3)c(F)c2)C(C)(C)C)n2ncnc2n1` [Example 31, N-[(1R)-1-(4-Cyclopropyl-3-fluorophenyl)-2,2-dimethylpropyl]-5-methyl[1,2,4]triazolo[1,5-a] pyrimidin-7-amine], the Ki stood at 4.9 nM.
On to `FS(F)(F)(F)(F)c1ccc(C2(Nc3cc(C4CC4)nc4ncnn34)CC2)cc1` [Example 72, 5-Cyclopropyl-N-{1-[4-(pentafluoro-λ^6-sulfanyl)phenyl]cyclopropyl}[1,2,4] triazolo[1,5-a]pyrimidin-7-amine], for which the Ki worked out at 26 nM.
In the case of `Cc1cc(NC(c2ccc(C(F)F)cc2)C(C)(C)O)n2ncnc2n1` (single isomer, unassigned) [Example 109, (1R or S)-1-[4-(Difluoromethyl)phenyl]-2-methyl-1-[(5-methyl [1,2,4]triazolo [1,5-a]pyrimidin-7-yl)amino] propan-2-ol], the Ki turned out to be 905 nM.
Take `CC(C)(O)[C@@H](Nc1cncc2ncnn12)c1ccc(C(F)(F)F)cc1` [Example 287, (1S)-2-Methyl-1-([1,2,4]triazolo[1,5-a]pyrazin-5-ylamino)-1-[4-(trifluoromethyl)phenyl]propan-2-ol]: the Ki was 150 nM.
In the case of `Cc1cc(NC2(c3ccc(C(F)(F)F)c(F)c3)CC2)n2nc(N)nc2n1` [Example 255, N^7-{1-[3-Fluoro-4-(trifluoromethyl)phenyl]cyclopropyl}-5-methyl[1,2,4]triazolo[1,5-a]pyrimidine-2,7-diamine], the Ki was 22 nM.
As for `Cc1cc(NC2(c3ccc(S(F)(F)(F)(F)F)cc3)CC2)n2ncnc2n1` [Example 58, 5-Methyl-N-{1-[4-(pentafluoro-λ^6-sulfanyl)phenyl]cyclopropyl}[1,2,4] triazolo[1,5-a]pyrimidin-7-amine], the Ki worked out at 52 nM.
As for `Cc1cc(N[C@H](C)c2ccc(OC(F)(F)F)c(F)c2)n2ncnc2n1` [Example 8, N-{(1R)-1-[3-Fluoro-4-(trifluoromethoxy)phenyl]ethyl}-5-methyl[1,2,4]triazolo[1,5-a] pyrimidin-7-amine], the Ki was 57 nM.
On to `CC(C)(O)C(Nc1cc(C(F)(F)F)nc2ncnn12)c1ccc(C(F)(F)F)cc1Cl` (single isomer, unassigned) [Example 159, (1S or R)-1-[2-Chloro-4-(trifluoromethyl)phenyl]-2-methyl-1-{[5-(trifluoromethyl)[1,2,4]triazolo[1,5-a]pyrimidin-7-yl]amino}propan-2-ol], for which the Ki is more than 2960 nM.
For `Cc1cc(NC(c2ccc(C(F)(F)F)cc2Cl)C(C)(C)O)n2ncnc2n1` (single isomer, unassigned) [Example 105, (1R or S)-1-[2-Chloro-4-(trifluoromethyl)phenyl]-2-methyl-1-[(5-methyl[1,2,4]triazolo[1,5-a]pyrimidin-7-yl)amino]propan-2-ol] the value was 38 nM.
For the molecule `Cc1cc(N[C@@H](c2ccc(S(F)(F)(F)(F)F)cc2)C2(C)CC2)n2ncnc2n1` [Example 44, 5-Methyl-N-{(R)-(1-methylcyclopropyl)[4-(pentafluoro-λ^6-sulfanyl)phenyl]methyl} [1,2,4]triazolo[1,5-a]pyrimidin-7-amine], the Ki was 18 nM.
`Cc1cc(N[C@H](C)c2ccc(C(F)(F)F)c(Cl)c2)n2ncnc2n1` [Example 5, N-{(1R)-1-[3-Chloro-4-(trifluoromethyl)phenyl]ethyl}-5-methyl[1,2,4]triazolo[1,5-a] pyrimidin-7-amine]: the Ki came to 113 nM.
With `CC(C)(O)[C@@H](Nc1cc(C(F)F)cc2ncnn12)c1ccc(C(F)(F)F)cc1` [Example 280, (1S)-1-{[7-(Difluoromethyl) [1,2,4]triazolo[1,5-a]pyridin-5-yl]amino}-1-[4-(trifluoromethyl)phenyl]-2-methylpropan-2-ol], the Ki turned out to be 20 nM.
For the molecule `Cc1cc(NC(c2ccc(OC(F)F)cc2)C(C)(C)O)n2ncnc2n1` (single isomer, unassigned) [Example 111, (1R or S)-1-[4-(Difluoro-methoxy)phenyl]-2-methyl-1-[(5-methyl[1,2,4]triazolo[1,5-a]pyrimidin-7-yl)amino]propan-2-ol], the Ki was 26 nM.
Turning to `COCc1cc(N[C@H](C)c2ccc(C(F)(F)F)c(F)c2)n2ncnc2n1` [Example 77, N-{(1R)-1-[3-Fluoro-4-(trifluoromethyl)phenyl]ethyl}-5-(methoxymethyl)[1,2,4]triazolo [1,5-a]pyrimidin-7-amine], the Ki is approximately 1180 nM.
Turning to `Cc1cc(N[C@@H](c2ccc(SC(F)(F)F)cc2)C2CC2)n2ncnc2n1` [Example 40, N-[(R)-Cyclopropyl{4-[(trifluoromethyl)sulfanyl]phenyl}methyl]-5-methyl[1,2,4]triazolo[1,5-a] pyrimidin-7-amine], the inhibition constant Ki came to 14 nM.
As for `Cc1cc(N[C@@H](c2ccc(SC(F)(F)F)c(F)c2)C(C)C)n2ncnc2n1` [Example 21, N-[(1R)-1-{3-Fluoro-4-[(trifluoromethyl)sulfanyl]phenyl}-2-methylpropyl]-5-methyl[1,2,4]triazolo[1,5-a] pyrimidin-7-amine], the Ki came to 4 nM.
Turning to `OCc1cc(NC2(c3ccc(C(F)(F)F)c(F)c3)CC2)n2ncnc2c1` [Example 266, (5-((1-(3-Fluoro-4-(trifluoromethyl)phenyl)cyclopropyl)amino)-[1,2,4]triazolo[1,5-a]pyridin-7-yl)methanol], the Ki amounted to 13 nM.
With `Cc1cc(NC(C)(C)c2ccc(C(F)(F)F)cc2Cl)n2ncnc2n1` [Example 47, N-{1-[2-Chloro-4-(trifluoromethyl)phenyl]-1-methylethyl}-5-methyl [1,2,4]triazolo[1,5-a]pyrimidin-7-amine], the inhibition constant Ki was 161 nM.
Regarding `Cc1cc(N[C@H](c2ccc(C(F)(F)F)c(F)c2)C(C)(C)O)n2ncnc2n1` [Example 99, (1R)-1-[3-Fluoro-4-(trifluoromethyl)phenyl]-2-methyl-1-[(5-methyl [1,2,4]triazolo[1,5-a]pyrimidin-7-yl)amino]propan-2-ol], the Ki was found to be 555 nM.
Regarding `CN(C)c1cc(NC2(c3ccc(C(F)(F)F)c(F)c3)CC2)n2ncnc2n1` [Example 239, N^7-(1-(3-Fluoro-4-(trifluoromethyl)phenyl)cyclopropyl)-N,N-dimethyl-[1,2,4]triazolo[1,5-a]pyrimidine-5,7-diamine], the Ki came out at 13 nM.
